Reference: patent US20100286229A1, “Modulation of Androgen Receptor for Treatment of Prostate Cancer” (priority 2005, published 2010)
“Also recorded” adds a separate entry of the source.

Columns and labels:
Assay type in all cases: cell-based, human
AR [1] = assay: ARE-Luc (AR-dependent luciferase) reporter activity in CaP cells in CSS medium with DHT
AR overexpressing cells = assay: Growth of cells transduced with AR lentivirus in CSS with or without DHT; conditions: 0.3 nM DHT
Method: (§1) Cells were plated in 6 well plates at 10^5/well. The next day, cells were transduced with concentrated GFP or AR lentiviruses, yielding 50-100% transduction efficiency. […] The medium was changed every 48 h. Cells were collected for Western blotting and luciferase assays at different time points or fixed and stained with methylene blue on day 8 after transduction.
(§2) The growth of cells overexpressing AR, cultured in CSS with no DHT, was not different from GFP expressing cells. Thus, this growth reflects the general sensitivity of certain type of cells to the presence of steroids in medium (FIG. 13A).

AR [2] = assay: AR protein level in cells transduced with AR-lentivirus, CSS medium with or without DHT (Western blotting); conditions: DHT-containing media vs CSS without DHT
Method: as §1, §2

CWR22R cells = assay: Cell growth by methylene blue staining in CSS medium with DHT, CWR22R; conditions: 10 nM DHT
Hela cells = assay: Growth of AR-negative Hela cells with DHT (data not shown)
p21 = p21 protein level in lysates of LNCaP cells treated with DHT; conditions: 1 nM and 10 nM DHT compared to 0 nM, 0.1 nm DHT or FBS
Source text: Thus increased activity of AR due to its overexpression or hyper-stimulation with ligand inhibits cell growth, possibly due to induction of p21.

proteasomes = assay: AR protein level in HeLa cell variants treated with proteasome inhibitor PS341
C4-2 cells = assay: Growth after retroviral anti-AR shRNA transduction and hygromycin selection, C4-2; conditions: retroviral vector, hygromycin selection, control anti-GFP
Source text: (§3) We confirmed that inhibition of AR signaling is growth suppressive for androgen-insensitive versions of CaP (FIG. 5). Based on what is known from clinical oncology and AR mutation databases, we hypothesized that complete inhibition of AR function would be deleterious for both androgen-dependent and androgen refractory prostate cancer cells since CaP cells very rarely loose AR signaling during progression. To estimate the dependency of prostate cancer cells on the expression of AR, we transduced them with retroviral vector expressing anti-AR siRNA with subsequent selection on hygromycin. Control cells were transduced with anti-GFP siRNA vector. Transduction efficiency was estimated in AR-negative cells, DU145.
(§4) We also estimated the dependency of prostate cancer cells on the expression of AR by transducing cells with a retroviral vector expressing anti-AR shRNA, followed by selection on hygromycin (FIG. 12). […]
(§5) For the experiments in FIG. 12, retroviral packaging and transduction were performed as follows. […] 10-14 days later, after complete death of control untransduced cells, the number of colonies was quantified, or cells were used for further experiments. […]
(§6) For the experiment in FIG. 12B, the number of colonies on each plate was counted and divided by number of colonies of AR-negative DU145 cells. […]

[3] = tested on: CaP cells expressing endogenous AR; assay: Growth after retroviral anti-AR shRNA transduction and hygromycin selection, CaP cells expressing endogenous AR; conditions: retroviral vector, hygromycin selection; for growth of CaP cells expressing endogenous AR: all tested CaP cells, control anti-GFP
Source text: as §3
We also estimated the dependency of prostate cancer cells on the expression of AR by transducing cells with a retroviral vector expressing anti-AR shRNA, followed by selection on hygromycin (FIG. 12). Control cells were transduced with anti-GFP shRNA vector; transduction efficiency was estimated on AR negative cells (DU145) transduced with the same viruses.
For the experiments in FIG. 12, retroviral packaging and transduction were performed as follows. Briefly, Ampho cells (Clontech) were transfected with retroviral expression vector. Medium with virus was collected at 48 h and immediately transferred onto the target cells. 8 μg/ml of polybrene (Sigma) was added to transduced cells. 24 h later, the medium was changed with fresh medium containing the appropriate antibiotic for selecting transduced cells. 10-14 days later, after complete death of control untransduced cells, the number of colonies was quantified, or cells were used for further experiments. Retroviral shRNA vectors were generated by inserting the H1 promoter and a cassette for cloning of shRNA into the right LTR of pLPCHygro plasmid (Clontech).
For the experiment in FIG. 12B, the number of colonies on each plate was counted and divided by number of colonies of AR-negative DU145 cells. The number of colonies of cells transduced with shRNA against GFP was set as 1. DU145 cells were obtained from ATCC.

AR mRNA [4] = assay: ARE-Luc reporter cotransfection with anti-AR shRNA constructs; conditions: for ARE-Luc reporter activity: C4-2 cells, control shRNAs against GFP or FasL; for ARE-Luc reporter activity on endogenous AR: LNCaP cells, 48 h, control shGFP, shFasL
Source text: Based on what was known from clinical oncology and AR mutation databases we hypothesized that complete inhibition of AR function would be toxic for both androgen-dependent and androgen-refractory prostate cancer cells, because prostate cancer cells very rarely lose AR signaling during cancer progression. To completely block AR activity in these cells we used an RNAi approach (FIG. 11). We synthesized several shRNA constructs targeting different portions of AR mRNA using a loop model (see Example 4 above).
Reporter assays were performed by transiently transfecting cells with pARE-Luc plasmid and pcDNA-3.1 hygro plasmids (empty or AR), or plasmids with shRNAs in different proportions. Transfection efficiency was normalized by citransfection of pCMV-LacZ plasmid or pEGFP-mito (Clontech). Reporter activity was measured using a Luciferase Assay System (Promega) at 48 h.

LNCaP cells = assay: Growth after retroviral anti-AR shRNA transduction and hygromycin selection, LNCaP; conditions: retroviral vector, hygromycin selection, control anti-GFP
Source text: as §3, §4, §5, §6

endogenous AR = assay: Knock down of endogenous AR in CaP cells infected with lentiviral siAR6 and ARΔLBD; conditions: simultaneous infection with siAR6 and ARΔLBD lentiviral vectors
Source text: To generate completely ligand independent CaP cells, we simultaneously infected cells with lentiviral vectors expressing siAR6 and ARΔLBD.

AR mRNA [5] = assay: ARE-Luc activity with siRNAs against translated and untranslated regions of AR mRNA; conditions: C4-2 cells, endogenous AR
Source text: We next eliminated expression of the endogenous ligand-dependent AR in a way that would not affect the expression of the ARΔLBD mutant. To achieve this, we generated a series of lentiviral vectors expressing siRNA's against untranslated regions of AR mRNA that are missing in the generated ARΔLBD-expressing constructs. We tested their activity in C4-2 prostate cancer cells that have endogenous AR and in H1299 cells expressing only exogenous AR from the transduced construct. While all siRNA's against translated and untranslated regions of AR were active in inhibition of ARE-Luc activity in C4-2 cells, only siRNA's against translated regions were active in H1299 cells (FIG. 6).

C[C@]12CCC(=O)C[C@@H]1CC[C@@H]1[C@@H]2CC[C@]2(C)[C@@H](O)CC[C@@H]12 [DHT, dehydrotestosterone]
reporter induction by DHT (AR [1]; CWR22R and 22Rv1 cells): up to 3.5 fold
ARE-Luc reporter activation by DHT (AR [1]; CWR22R cells with shAR and ARDLBD): do not respond
reporter response to addition of DHT (AR [1]; LNCaP, C4-2 and CWR22R cells, CSS containing 0-10 nm DHT): reporter activation
growth of AR overexpressing cells compared to GFP expressing control (AR overexpressing cells): suppression of growth
AR levels in cells transduced with AR-lentivirus (AR [2]): reduced AR levels to those observed prior transduction
growth at high doses of DHT (CWR22R cells): minor growth suppressing effect
growth in response to DHT (Hela cells): not affected
level of p21 (p21): higher

CC(C)C[C@H](NC(=O)[C@H](Cc1ccccc1)NC(=O)c1cnccn1)B(O)O [PS341]
ARΔLBD protein level (proteasomes; HeLa cells with ARΔLBD): remained unchanged
wtAR protein level (proteasomes; HeLa cells with wtAR): increased; also recorded: accumulation of wild type AR protein

AR1: siRNA/shRNA against AR, sequence GCTCAAGGATGGAAGTGCA, SEQ ID NO 3, target 1108-1126 (listed as DNA, chemistry not given here)
cell growth (C4-2 cells): inhibited the growth
growth of CaP cells expressing endogenous AR [3]: growth inhibitory effect; also recorded: inhibits growth
ARE-Luc reporter activity (AR mRNA [4]): inhibit ARE-Luc reporter activity
ARE-Luc reporter activity on endogenous AR (AR mRNA [4]): inhibit ARE-Luc reporter activity
ARE-Luc reporter activity on endogenous AR (AR mRNA [4]; listed as shAR1): maximal activity
cell growth (LNCaP cells): inhibited the growth

AR2: siRNA/shRNA against AR, sequence GCTGCTCCGCTGACCTTAA, SEQ ID NO 4, target 1642-1660 (listed as DNA, chemistry not given here)
growth of CaP cells expressing endogenous AR [3]: no inhibitory activity
ARE-Luc reporter activity (AR mRNA [4]): inhibit ARE-Luc reporter activity
ARE-Luc reporter activity on endogenous AR (AR mRNA [4]): inhibit ARE-Luc reporter activity
ARE-Luc reporter activity on endogenous AR (AR mRNA [4]; listed as shAR2): did not completely block AR transcription

AR3: siRNA/shRNA against AR, sequence TCTCTGTGCAAGTGCCCAA, SEQ ID NO 5, target 3814-3832 (listed as DNA, chemistry not given here)
growth of CaP cells expressing endogenous AR [3]: no inhibitory activity
growth-inducing property on AR expressing CaP cells [3]: some growth-inducing property
ARE-Luc reporter activity (AR mRNA [4]): inhibit ARE-Luc reporter activity
ARE-Luc reporter activity on endogenous AR (AR mRNA [4]): inhibit ARE-Luc reporter activity
ARE-Luc reporter activity on endogenous AR (AR mRNA [4]; listed as shAR3): did not completely block AR transcription

AR6: siRNA against untranslated region of AR mRNA, sequence GTCAGGTCTTCAGTAGCCA, SEQ ID NO 6, target 688-706 (listed as DNA, chemistry not given here)
knock down of endogenous AR (endogenous AR): nearly complete knock down of endogenous AR
inhibition of ARE-Luc activity (AR mRNA [5]): most effective
